Columns and labels:
Fe^2+ chelation assay = assay type: biochemical
Experimental: The protocol used for assessing Fe^2+ chelating capacity of the compounds was adapted from a report of Benzie and Strain and previously reported by our group. The iron(II) chelation ability of compounds was calculated using Equation (7):(7) iron chelation (%)=control absorbance−sample absorbance/control absorbance×100
The chelating potential for the ferrous ions of the new compounds was determined, based on their competition for Fe^2+ with ferrozine.

[1] = TEMPO scavenging by differential pulse voltammetry; details: 2 mM TEMPO, one hour incubation, 0.1 M HClO4, DPV
Experimental: (§1) The antioxidant properties were evaluated in terms of their activity against some free radicals, and other compounds reported in the literature, relevant for this purpose, such as: • ferric ions (Fe^3+)—used to test the reduction of the antioxidant character of the compounds; • DPPH˙ free radical– used to test the scavenging effect of the compounds on this radical; • hydrogen peroxide (H2O2)—used to test the scavenging effect of the synthesized molecules on this compound; • 2,2,6,6-tetramethylpiperidinyl-1-oxy (TEMPO)—used to test the scavenging effect of the synthesized molecules on this compound.
TEMPO (2,2,6,6-tetramethylpiperidine-N-oxyl) is a stable organic nitroxide radical that has been reported to scavenge carbon-centered radicals.
Differential pulse voltammetry (DPV) was then applied in order to evaluate the antioxidant effectiveness of the novel compounds through their ability to scavenge the free radical species.

[2] = DPPH˙ radical scavenging by cyclic voltammetry
Experimental: as §1
The radical scavenging properties of the novel compounds and the other antioxidants were determined using a stock DPPH˙ radical solution prepared in absolute ethanol. The antioxidant samples were mixed with DPPH˙ solution and HClO4 electrolyte and incubated in the dark for 30 min. The remaining redox activity of DPPH was measured by cycling the potential between −0.7 V and 1.2 V, with a scan rate of 0.1 V/s.
The nitrogen-centered 2-2-diphenyl-1-picrylhydrazyl radical (DPPH˙) based assay is one of the most commonly employed method to evaluate the ability of a compound to scavenge or neutralize free radicals based on the reduction of the radical.
Taking into account the redox activity of DPPH˙, its diminution by an antioxidant can also be followed by CV, which is expected to show changes in the voltammetric peaks. Figure A5 reports the electrochemical study of initial electrooxidation of DPPH˙ and the novel compounds compared to remaining peaks after their incubation for 30 min. The decrease of all the peaks after mixture incubation indicates the partial consumption of DPPH˙.

[3] = Ferric ions (Fe^3+) reducing antioxidant power by cyclic voltammetry; details: for Ered (V): 1st Ered; for Ired (μA): 1st Ired
Experimental: The evaluated compounds’ stock solutions used were prepared at a concentration of 5 mM. To test their redox properties, dilutions of 0.5 mM and 2 mM were prepared in 0.1 M HClO4 electrolyte (pH = 1.2). Screen-printed electrodes (SPEs; Metrohm DropSens, Oviedo, Spain) (planar electrodes) with graphite and gold working electrodes were used. Cyclic voltammetry (CV) and differential pulse voltammetry (DPV) were the electrochemical methods applied. The experimental conditions for each test are mentioned near the corresponding data (Appendix A).
as §1
This method is based on the evaluation of the influence of the compound measured by the direct reduction of Fe[(CN)6]^3− to […]. This assay is based on the reduction of Fe^3+ to Fe^2+ due to the action of antioxidants. Based on the electrochemical behavior of the studied compounds, the interaction of Fe^3+ was followed by cyclic voltammetry (CV) via the possible changes of redox peaks characteristic for Fe^3+/Fe^2+ transition after the interaction with antioxidants (if any).
From the voltammogram of potassium ferricyanide it can be observed that the one-electron transfer process Fe^3+/Fe^2+ occurs at 0.247 V/ 0.150 V in acidic media (red) (Figure A1; Table A1).
Each compound presents its characteristic peaks (blue line in each figure).

[4] = ABTS˙^+ radical scavenging assay; assay type: biochemical; details: for IC50: ABTS˙^+ scavenging
Experimental: The assay was based on the decolorization of green (2,2′-azinobis-(3-ethylbenzothiazoline-6-sulfonic acid) ABTS˙^+ to ABTS, on the principle reported by Re et al. and was carried out according to our previously published research.
Later, 1950 µL of ABTS˙^+ reagent was added to all cuvettes and they were shaken for well over 10 min in the dark at room temperature. The absorbance of the resulted solutions found in cuvettes was determined spectrophotometrically at λ = 734 nm. The ABTS scavenging activity of the compounds was calculated using the following Equation (1):(1) ABTS scavenging (%)=control absorbance−sample absorbance/control absorbance×100

E. coli ATCC 8739 = test: Antimicrobial activity, modified microdilution; assay type: cell-based; details: Escherichia coli, ATCC8739
Experimental: For evaluating the antimicrobial activity of the compounds, […] aerobic microbial strains were used: S. aureus ATCC 25923, S. pyogenes ATCC 19615, P. aeruginosa ATCC 27853, S. enterica ISM 83/37, S. typhimurium ATCC 14028, E. coli ATCC 8739, E. coli ATCC 25922, and C. albicans ATCC 102310 obtained from Food Biotechnology Laboratory, Life Sciences Institute, University of Agricultural Sciences, and Veterinary Medicine Cluj Napoca, where the experiment was performed. The antimicrobial activity of the compounds was determined using a modified microdilution technique, and the followed protocol was previously reported.
The antimicrobial activity of the final compounds, against seven aerobic microbial strains (S. aureus ATCC 25923, S. pyogenes ATCC 19615, P. aeruginosa ATCC 27853, S. enterica ISM 83/37, S. typhimurium ATCC 14028, E. coli ATCC 8739, E. coli ATCC 25922), and a fungal strain (C. albicans ATCC 102310), was determined using a modified microdilution technique.
The results of the antimicrobial activity evaluation of the compounds, in comparison to norfloxacin and chloramphenicol used as standard antibiotics and fluconazole used as reference antifungal, are depicted in Table 10.

[5] = compound + DPPH, 30 min, 2nd Eox
[6] = compound alone, 2nd Ered column
[7] = compound + Fe^3+/Fe^2+, 2nd Eox
[8] = compound + Fe^3+/Fe^2+, 2nd Iox column
[9] = compound alone 0.5 mM in 0.1 M HClO4, 2nd Iox column

SMILES	Chelation Capacity (%), ferrous ions (Fe^2+ chelation assay; 50 µg/mL) [%]	Chelation Capacity (%), ferrous ions (Fe^2+ chelation assay; 100 µg/mL) [%]	Chelation Capacity (%), ferrous ions (Fe^2+ chelation assay; 150 µg/mL) [%]	Chelation Capacity (%), ferrous ions (Fe^2+ chelation assay; 200 µg/mL) [%]	oxidation signal for TEMPO after incubation with the compound [1]	Iox (μA) ([2]; compound + DPPH, 30 min)	Eox (V) [2, 5] [V]	Ered (V) [2, 6] [V]	Ired (μA) ([2]; compound alone, 2nd Ired)	Ered (V) ([3]; compound + Fe^3+/Fe^2+)	Ired (μA) ([3]; compound + Fe^3+/Fe^2+)	Eox (V) [3, 7] [V]	Iox (μA) [3, 8] [μA]	Iox (μA) [3, 9] [μA]	% of ABTS˙^+ Scavenged ([4]; 0.5 µg/mL) [%]	% of ABTS˙^+ Scavenged ([4]; 0.75 µg/mL) [%]	% of ABTS˙^+ Scavenged ([4]; 1 µg/mL) [%]	% of ABTS˙^+ Scavenged ([4]; 1.5 µg/mL) [%]	% of ABTS˙^+ Scavenged ([4]; 2.5 µg/mL) [%]	IC50 [4] [µg/mL]	also measured
Br.NC(=O)c1cc(-c2csc(N/N=C/c3ccc(O)cc3O)n2)ccc1O [Compound 7b, (E)-1-(4-(3-carbamoyl-4-hydroxyphenyl)thiazol-2-yl)-2-(2,4-dihydroxybenzylidene) hydrazin-1-ium bromide]	0.07	3.44	9.13	16.28	does not decrease	9.076	0.359	0.276	−2.54	0.161	−6.8	0.305	6.08	2.07	25.42	30.15	36.50	49.20	69.53	1.60	Ered (V) ([2]; compound + DPPH, 30 min, 1st Ered): 0.291 V; Ired (μA) ([2]; compound + DPPH, 30 min, 1st Ired): −7.43 μA; Iox (μA) ([2]; compound alone): 15.65 μA; Eox (V) ([2]; compound alone, 2nd Eox): 0.342 V; Eox (V) ([3]; compound 0.5 mM + Fe^3+/Fe^2+ (0.5 mM potassium ferricyanide), 1st Eox column): 0.205 V; Iox (μA) ([3]; compound 0.5 mM + Fe^3+/Fe^2+ (0.5 mM potassium ferricyanide), 1st Iox column): 1.39 μA; Eox (V) ([3]; compound + Fe^3+/Fe^2+, 5th Eox): 0.926 V; Iox (μA) ([3]; compound + Fe^3+/Fe^2+, 5th Iox column): 6.34 μA; Eox (V) ([3]; compound alone 0.5 mM in 0.1 M HClO4, 2nd Eox): 0.347 V; Eox (V) ([3]; compound alone 0.5 mM in 0.1 M HClO4, 5th Eox): 1.065 V; Iox (μA) ([3]; compound alone 0.5 mM in 0.1 M HClO4, 5th Iox column): 2.64 μA; MIC (E. coli ATCC 8739): > 100 µg/mL
Br.C/C(=N\Nc1nc(-c2ccc(O)c(C(N)=O)c2)cs1)c1ccc(O)cc1O [Compound 7a, (E)-1-(4-(3-carbamoyl-4-hydroxyphenyl)thiazol-2-yl)-2-(1-(2,4-dihydroxyphenyl)ethylidene)hydrazin-1-ium bromide]	0.07	1.73	2.29	3.88	does not decrease	9.24	0.405	0.217	−5.26	0.164	−7.23	0.23	4.35	4.37	11.62	17.29	22.69	30.78	49.37	2.52	Eox (V) ([2]; compound alone 0.5 mM in 0.1 M HClO4, 1st Eox column): 0.205 V; Iox (μA) ([2]; compound alone 0.5 mM in 0.1 M HClO4, 1st Iox column): 3.21 μA; Eox (V) ([2]; compound alone, 3rd Eox column): 0.493 V; Iox (μA) ([2]; compound alone, 3rd Iox column): 3.95 μA; Iox (μA) ([3]; compound + Fe^3+/Fe^2+, 3rd Iox column): 1.75 μA; Iox (μA) ([3]; compound alone 0.5 mM in 0.1 M HClO4, 3rd Iox column): 1.95 μA; MIC (E. coli ATCC 8739): > 100 µg/mL
